Experimental data: PMC12137978, “Design, molecular characterization and therapeutic investigation of a novel CCR8 peptide antagonist that attenuates acute liver injury by inhibiting infiltration and activation of macrophages” (Acta Pharmaceutica Sinica. B, 2025)
Where no end group is shown, it is not given here.

T1: CCR8 on LPS/IFNγ-activated RAW264.7 macrophages (Mus musculus, UniProt P56484)
T1 construct: endogenous in cells
T1 sequence (P56484 1-353): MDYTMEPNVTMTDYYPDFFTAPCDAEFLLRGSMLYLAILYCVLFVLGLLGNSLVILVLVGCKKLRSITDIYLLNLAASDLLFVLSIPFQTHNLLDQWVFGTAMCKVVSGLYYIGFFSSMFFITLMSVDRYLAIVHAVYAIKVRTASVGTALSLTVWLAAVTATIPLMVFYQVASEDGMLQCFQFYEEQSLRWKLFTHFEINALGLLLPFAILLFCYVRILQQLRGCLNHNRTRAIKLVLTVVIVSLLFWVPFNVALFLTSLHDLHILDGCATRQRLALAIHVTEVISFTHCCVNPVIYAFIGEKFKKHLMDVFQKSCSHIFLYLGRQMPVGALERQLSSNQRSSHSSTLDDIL

B1: CCL1: Human Recombinant I-309 (CCL1), CCR8 ligand (300-37-B, Tebu-bio) (protein, UniProt P22362 24-96, looked up)
C-C motif chemokine 1: KSMQVPFSRCCFSFAEQEIPLRAILCYRNTSSICSNEGLIFKLKRGKEACALDTVGWVQRHRKMLRHCPSKRK

Tests used:
[1] = tested on: C57BL/6 mice with CCl4-induced acute liver injury; assay: CCl4-induced acute liver injury mouse model; assay type: in vivo; settings: 1 μmol/kg twice daily, 2 days after CCl4
Description: All the animal experiments were carried out according to the ethical guidelines for the Care and Use of Laboratory Animals (Utrecht University, The Netherlands). CCl4 was prepared in olive oil ([…], 63.76 mg/mL) and AP8ii (1 μmol/kg) and R243 (1 μmol/kg) were prepared in hydroxypropyl-β-cyclodextrin (10%) and Kolliphor HS15 (5%) containing MilliQ water (85%). Male C57BL/6 mice (12 weeks old) received a single intraperitoneal injection (IP) of olive oil (healthy n = 9) or 0.2 mL/kg (318.8 mg/kg) CCl4 (vehicle n = 9, AP8 n = 9 and R243 n = 9) on Day 1. On Days 2 and 3, the CCl4-treated mice received vehicle, 1 μmol/kg AP8 (1.157 mg/kg) or 1 μmol/kg R243 (0.35744 mg/kg) twice daily. […] Total alanine aminotransferase (ALT) and aspartate transferase (AST) levels were determined in the plasma samples as per standard biochemical assays.
Cell suspension were prepared from freshly collected liver tissues using the TissueGrinder (TG, Fast Forward Discoveries GmbH, Mannheim, Germany) as detailed earlier. […] Cells were washed 3 times, stained with rat anti-mouse fluorescent antibodies (CD45-APC, CD11b-PE and F4/80-PE/Cy7, 0.2 μg/100 μL, Biolegend) for 1 h, Hoechst 33,342 (10 μg/100 μL, Thermo Fisher) for 30 min, and analyzed within 7 days. […]

RAW264.7 macrophages = assay: Alamar Blue cell viability assay, RAW264.7; assay type: cell-based, mouse; settings: 10 μmol/L, 24 h, with or without LPS/IFNγ; three independent experiments
Description: To assess the effects of AP8ii on the cell viability, cells were plated in 24-well plates, cultured overnight and incubated with AP8ii or R243 (10 μmol/L) with or without 100 ng/mL LPS and 10 ng/mL IFNγ (for 24 h, cell viability assays were performed using Alamar Blue reagent (Invitrogen, Carlsbad, CA, USA) as per manufacturer's instructions. The results are represented as% cell viability normalized to untreated control cells (at 100%). All measurements were performed in triplicates in three independent experiments.

[2] = AP8ii peptide stability in human serum by analytic HPLC; assay type: in vitro ADME; settings: 37 °C
Description: Analytic HPLC measurements were conducted in an Agilent 1260 Infinity II Liquid Chromatography system, equipped with a Polaris C18 column and a UV–Vis detector. The samples were analyzed with a mobile phase of MilliQ (solvent A) and acetonitrile (solvent B), both containing 0.1% v/v of formic acid, using a 1 mL/min flow rate within a run of 22 min. The gradient ramp was from 1% solvent B up to 60% solvent B in 15 min, then from 60% solvent B to 99% solvent in 5 min, finally 2 min at 99% of solvent B. Each injection used 50 μL, out of the 150 μL in the vial. Detection was performed at λ = 280 nm. Integration of the signals (e.g., peak area) in the chromatogram was performed using OpenLab CDS (data analysis software).
An adapted protocol based on[43] was followed for analysis. In a vial, 475 μL of 1 mmol/L peptide solution was mixed with 50 μL of human serum (making 0.95 mmol/L peptide in 10 vol% serum). The sample was incubated at 37 °C for increasing time. At 0, 1, 2, 4 and 24 h, an aliquot of 125 μL was taken from the vial, quenched with 50 μL of 10% TFA solution in MilliQ and centrifuged for 1 min at 13,000 rpm. Then 150 μL of the supernatant was taken for analysis. Control samples containing only peptide (e.g., without serum) and only human serum (e.g., without peptide) were included. All measurements were conducted in duplicates. Data of peak absolute area were expressed as mean ± standard deviation (SD).

[3] = target: T1, CCR8 on LPS/IFNγ-activated RAW264.7 macrophages; assay: Competitive peptide binding study (co-incubation and pre-incubation)
Description: For competitive studies, the peptide binding protocol was used however competition with R243, CCL1 and anti-CCR8 antibody was performed. Two types of competitive studies were performed—co-incubation and pre-incubation where macrophages were either co-incubated with equimolar concentration of R243 (10 μmol/L), CCL1 (100 ng/mL) or anti-CCR8 antibody (5.0 μg/mL, Cat. No. MAB-8324, Novus biologicals, […], USA) and AP8ii (10 μmol/L), or preincubated with R243 (10 μmol/L), CCL1 (100 ng/mL) or anti-CCR8 antibody (5.0 μg/mL) for 2 h followed by addition of AP8ii (10 μmol/L) for an additional 4 h. Finally, images were captured at 10 ×, 20 × and 40 ×, and RhB intensity was analyzed using ImageJ software and normalized to the number of nuclei using DAPI.

Molecule | body weight during treatment [1] | toxicity (Alamar blue-based metabolic assay) (RAW264.7 macrophages) | remaining at 24 h, 0.95 mmol/L ([2]; 0.95 mmol/L peptide in 10 vol% human serum, 24 h, TFA quench, analytic HPLC C18, UV 280 nm, peak area, duplicates, read-out: peptide remained intact after 24 h of incubation) [%] | half-life at 0.95 mmol/L ([2]; 0.95 mmol/L peptide in 10 vol% human serum, analytic HPLC UV 280 nm, read-out: t1/2 in human serum) [h] | stability on exposure to serum (peak absolute area) ([2]; 10 vol% human serum, first 4 h, analytic HPLC UV 280 nm) | AP8ii binding blocked, co-incubation study ([3]; competitor (R243 10 μmol/L, CCL1 100 ng/mL, anti-CCR8 antibody 5.0 μg/mL) co-incubated with RhB-labeled AP8ii 10 μmol/L 4 h) [%] | AP8ii binding blocked, pre-incubation study ([3]; competitor (R243 10 μmol/L, CCL1 100 ng/mL, anti-CCR8 antibody 5.0 μg/mL) preincubated 2 h, then RhB-labeled AP8ii 10 μmol/L 4 h) [%]
YEWRFYHG [AP8ii, Tyr-Glu-Trp-Arg-Phe-Tyr-His-Gly] | increased | no significant toxicity | > 82 | > 24 | remained stable during the first 4 h |  | 
B1 |  |  |  |  |  | ~20 | ~30
